Data on eleven compounds can be found in patent US20220081435A1, “ANDROGEN RECEPTOR PROTEIN DEGRADERS” (THE REGENTS OF THE UNIVERSITY OF MICHIGAN, priority 2019, published 2022).

Where two headings read alike, the source gives them in different places.

The experiment deals with T1, AR protein (Homo sapiens, UniProt P10275, T878A).
T1 construct: The percent AR protein degradation induced by these compounds at various concentrations in LNCaP cells; host or cells: LNCaP
T1 sequence (P10275 1-920 T878A): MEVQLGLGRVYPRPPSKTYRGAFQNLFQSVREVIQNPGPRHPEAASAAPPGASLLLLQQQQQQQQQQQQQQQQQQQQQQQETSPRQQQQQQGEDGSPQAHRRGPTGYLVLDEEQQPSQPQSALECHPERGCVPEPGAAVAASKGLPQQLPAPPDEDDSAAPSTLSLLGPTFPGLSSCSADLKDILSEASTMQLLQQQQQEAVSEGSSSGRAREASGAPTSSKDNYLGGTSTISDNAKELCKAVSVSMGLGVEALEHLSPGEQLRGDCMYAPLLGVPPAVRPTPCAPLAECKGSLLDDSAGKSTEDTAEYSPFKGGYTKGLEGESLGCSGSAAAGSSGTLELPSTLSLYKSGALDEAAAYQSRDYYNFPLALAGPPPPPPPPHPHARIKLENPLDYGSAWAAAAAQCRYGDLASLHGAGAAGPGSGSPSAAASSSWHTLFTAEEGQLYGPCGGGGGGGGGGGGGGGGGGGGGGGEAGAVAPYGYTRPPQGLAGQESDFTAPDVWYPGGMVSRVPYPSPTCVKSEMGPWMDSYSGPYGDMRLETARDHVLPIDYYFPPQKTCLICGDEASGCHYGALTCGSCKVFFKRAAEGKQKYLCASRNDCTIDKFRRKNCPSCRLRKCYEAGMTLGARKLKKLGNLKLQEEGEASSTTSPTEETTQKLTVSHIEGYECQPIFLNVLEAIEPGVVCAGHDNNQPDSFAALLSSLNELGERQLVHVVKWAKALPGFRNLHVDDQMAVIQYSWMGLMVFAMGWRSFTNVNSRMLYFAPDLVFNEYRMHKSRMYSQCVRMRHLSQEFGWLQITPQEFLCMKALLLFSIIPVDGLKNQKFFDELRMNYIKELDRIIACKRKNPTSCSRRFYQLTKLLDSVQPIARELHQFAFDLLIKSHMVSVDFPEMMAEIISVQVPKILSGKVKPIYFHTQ
Description: AR protein degradation in LNCaP cells (Western blotting). The format is cell-based. To be noted: LNCaP; for Dmax at 0.1 µM / Dmax at 1 µM / Dmax at 10 µM: read-out: % AR protein degradation in LNCaP Cells. As to the method: Cell lines and Cell Culture: All the LNCaP, VCaP and 22RV1 cells used were purchased from American Type Culture Collection (ATCC). […] All of the cells were supplemented with 10% fetal bovine serum (Invitrogen) at 37° C. in a humidified 5% CO2 incubator.
Western Blotting. Treated cells were lysed by RIPA buffer supplemented with protease and phosphatase inhibitors. […] Software ImageJ was used to quantify the percentage of AR degradation. The net protein bands and loading controls are calculated by deducting the background from the inverted band value. The final relative quantification values are the ratio of net band to net loading control.

[1] abbreviates: 0.1 μM, treatment time 6 h, average of three independent experiments.
[2] abbreviates: 1 μM, treatment time 6 h, average of three independent experiments.
Setting [3] is: 10 μM, treatment time 6 h, average of three independent experiments.
The mark [4] stands for this setting: treatment time 6 h, average of three independent experiments.

On to `Cc1ncsc1-c1ccc(CNC(=O)C2C[C@@H](O)CN2C(=O)[C@@H](NC(=O)CCNC(=O)c2ccc(N3C(=S)N(c4ccc(C#N)c(C(F)(F)F)c4)C(=O)C3(C)C)cc2F)C(C)(C)C)cc1` (stereo partly drawn) [Compound 8, (4R)-1-((S)-2-(3-(4-(3-(4-Cyano-3-(trifluoromethyl)phenyl)-5,5-dimethyl-4-oxo-2-thioxoimidazolidin-1-yl)-2-fluorobenzamido)propanamido)-3,3-dimethylbutanoyl)-4-hydroxy-N-(4-(4-methylthiazol-5-yl)benzyl)pyrrolidine-2-carboxamide], for which the Dmax at 0.1 µM under setting [1] is 26%. For the same compound, under setting [2], the Dmax at 1 µM is 35%. Further, the Dmax at 10 µM under setting [3] stood at 28%.
On to `Cc1ncsc1-c1ccc(CNC(=O)C2C[C@@H](O)CN2C(=O)[C@@H](NC(=O)CCCNC(=O)c2ccc(N3C(=S)N(c4ccc(C#N)c(C(F)(F)F)c4)C(=O)C3(C)C)cc2F)C(C)(C)C)cc1` (stereo partly drawn) [Compound 9, (4R)-1-((S)-2-(4-(4-(3-(4-Cyano-3-(trifluoromethyl)phenyl)-5,5-dimethyl-4-oxo-2-thioxoimidazolidin-1-yl)-2-fluorobenzamido)butanamido)-3,3-dimethylbutanoyl)-4-hydroxy-N-(4-(4-methylthiazol-5-yl)benzyl)pyrrolidine-2-carboxamide], for which, under setting [1], the Dmax at 0.1 µM was determined as 15%. The Dmax at 1 µM under setting [2] is 23%. Under setting [3], the Dmax at 10 µM is 33%.
For `Cc1ncsc1-c1ccc(CNC(=O)C2C[C@@H](O)CN2C(=O)[C@@H](NC(=O)CCCCNC(=O)c2ccc(N3C(=S)N(c4ccc(C#N)c(C(F)(F)F)c4)C(=O)C3(C)C)cc2F)C(C)(C)C)cc1` (stereo partly drawn) [Compound 10, (4R)-1-((S)-2-(5-(4-(3-(4-Cyano-3-(trifluoromethyl)phenyl)-5,5-dimethyl-4-oxo-2-thioxoimidazolidin-1-yl)-2-fluorobenzamido)pentanamido)-3,3-dimethylbutanoyl)-4-hydroxy-N-(4-(4-methylthiazol-5-yl)benzyl)pyrrolidine-2-carboxamide], for the setting “6 h”, the Dmax at 0.1 µM stood at 16%, the Dmax at 1 µM stood at 20% and the Dmax at 10 µM was found to be 25%.
Regarding `Cc1ncsc1-c1ccc(CNC(=O)C2C[C@@H](O)CN2C(=O)[C@@H](NC(=O)CCCCCNC(=O)c2ccc(N3C(=S)N(c4ccc(C#N)c(C(F)(F)F)c4)C(=O)C3(C)C)cc2F)C(C)(C)C)cc1` (stereo partly drawn) [Compound 11, (4R)-1-((S)-2-(6-(4-(3-(4-Cyano-3-(trifluoromethyl)phenyl)-5,5-dimethyl-4-oxo-2-thioxoimidazolidin-1-yl)-2-fluorobenzamido)hexanamido)-3,3-dimethylbutanoyl)-4-hydroxy-N-(4-(4-methylthiazol-5-yl)benzyl)pyrrolidine-2-carboxamide], the Dmax at 0.1 µM under setting [1] is 11%. The Dmax at 1 µM under setting [2] was found to be 25%. Under setting [3], the Dmax at 10 µM came out at 29%.
The corresponding values for `Cc1ncsc1-c1ccc(CNC(=O)C2C[C@@H](O)CN2C(=O)[C@@H](NC(=O)CCCCCCNC(=O)c2ccc(N3C(=S)N(c4ccc(C#N)c(C(F)(F)F)c4)C(=O)C3(C)C)cc2F)C(C)(C)C)cc1` (stereo partly drawn) [Compound 12, (4R)-1-((S)-2-(7-(4-(3-(4-Cyano-3-(trifluoromethyl)phenyl)-5,5-dimethyl-4-oxo-2-thioxoimidazolidin-1-yl)-2-fluorobenzamido)heptanamido)-3,3-dimethylbutanoyl)-4-hydroxy-N-(4-(4-methylthiazol-5-yl)benzyl)pyrrolidine-2-carboxamide] are 54%, 84% and 64%.
Take `Cc1ncsc1-c1ccc(CNC(=O)C2C[C@@H](O)CN2C(=O)[C@@H](NC(=O)CCCCCCCNC(=O)c2ccc(N3C(=S)N(c4ccc(C#N)c(C(F)(F)F)c4)C(=O)C3(C)C)cc2F)C(C)(C)C)cc1` (stereo partly drawn) [Compound 13, (4R)-1-((S)-2-(8-(4-(3-(4-Cyano-3-(trifluoromethyl)phenyl)-5,5-dimethyl-4-oxo-2-thioxoimidazolidin-1-yl)-2-fluorobenzamido)octanamido)-3,3-dimethylbutanoyl)-4-hydroxy-N-(4-(4-methylthiazol-5-yl)benzyl)pyrrolidine-2-carboxamide]: under setting [4], the Dmax at 0.01 µM is 8%. Also, the Dmax at 0.1 µM under setting [1] was 29%. Further, the Dmax at 1 µM under setting [2] is 65%.
The corresponding values for `Cc1ncsc1-c1ccc(CNC(=O)C2C[C@@H](O)CN2C(=O)[C@@H](NC(=O)CCCCCCCCNC(=O)c2ccc(N3C(=S)N(c4ccc(C#N)c(C(F)(F)F)c4)C(=O)C3(C)C)cc2F)C(C)(C)C)cc1` (stereo partly drawn) [Compound 14, (4R)-1-((S)-2-(9-(4-(3-(4-Cyano-3-(trifluoromethyl)phenyl)-5,5-dimethyl-4-oxo-2-thioxoimidazolidin-1-yl)-2-fluorobenzamido)nonanamido)-3,3-dimethylbutanoyl)-4-hydroxy-N-(4-(4-methylthiazol-5-yl)benzyl)pyrrolidine-2-carboxamide] are 15%, 66% and 87%.
`Cc1ncsc1-c1ccc(CNC(=O)C2C[C@@H](O)CN2C(=O)[C@@H](NC(=O)CCCCCCCCCNC(=O)c2ccc(N3C(=S)N(c4ccc(C#N)c(C(F)(F)F)c4)C(=O)C3(C)C)cc2F)C(C)(C)C)cc1` (stereo partly drawn) [Compound 15, (4R)-1-((S)-2-(10-(4-(3-(4-Cyano-3-(trifluoromethyl)phenyl)-5,5-dimethyl-4-oxo-2-thioxoimidazolidin-1-yl)-2-fluorobenzamido)decanamido)-3,3-dimethylbutanoyl)-4-hydroxy-N-(4-(4-methylthiazol-5-yl)benzyl)pyrrolidine-2-carboxamide] registered a Dmax at 0.01 µM under setting [4] of 10%. Under setting [1], the Dmax at 0.1 µM is 48%. Further, the Dmax at 1 µM under setting [2] is 88%.
The corresponding values for `Cc1ncsc1-c1ccc(CNC(=O)C2C[C@@H](O)CN2C(=O)[C@@H](NC(=O)CCCCCCCCCCNC(=O)c2ccc(N3C(=S)N(c4ccc(C#N)c(C(F)(F)F)c4)C(=O)C3(C)C)cc2F)C(C)(C)C)cc1` (stereo partly drawn) [Compound 16, (4R)-1-((S)-2-(11-(4-(3-(4-Cyano-3-(trifluoromethyl)phenyl)-5,5-dimethyl-4-oxo-2-thioxoimidazolidin-1-yl)-2-fluorobenzamido)undecanamido)-3,3-dimethylbutanoyl)-4-hydroxy-N-(4-(4-methylthiazol-5-yl)benzyl)pyrrolidine-2-carboxamide] are 11%, 48% and 86%.
With `Cc1ncsc1-c1ccc(CNC(=O)C2C[C@@H](O)CN2C(=O)[C@@H](NC(=O)CCCCCCCCCCCNC(=O)c2ccc(N3C(=S)N(c4ccc(C#N)c(C(F)(F)F)c4)C(=O)C3(C)C)cc2F)C(C)(C)C)cc1` (stereo partly drawn) [Compound 17, (4R)-1-((S)-2-(12-(4-(3-(4-Cyano-3-(trifluoromethyl)phenyl)-5,5-dimethyl-4-oxo-2-thioxoimidazolidin-1-yl)-2-fluorobenzamido)dodecanamido)-3,3-dimethylbutanoyl)-4-hydroxy-N-(4-(4-methylthiazol-5-yl)benzyl)pyrrolidine-2-carboxamide], the Dmax at 0.1 µM under setting [1] is 30%. For the same compound, the Dmax at 1 µM under setting [2] amounted to 69%. The Dmax at 10 µM under setting [3] worked out at 75%.
Regarding `Cc1ncsc1-c1ccc(CNC(=O)C2C[C@@H](O)CN2C(=O)[C@@H](NC(=O)CCOCCOCCNC(=O)c2ccc(N3C(=S)N(c4ccc(C#N)c(C(F)(F)F)c4)C(=O)C3(C)C)cc2F)C(C)(C)C)cc1` (stereo partly drawn) [Compound 18, (4R)-1-((S)-13-(tert-Butyl)-1-(4-(3-(4-cyano-3-(trifluoromethyl)phenyl)-5,5-dimethyl-4-oxo-2-thioxoimidazolidin-1-yl)-2-fluorophenyl)-1,11-dioxo-5,8-dioxa-2,12-diazatetradecan-14-oyl)-4-hydroxy-N-(4-(4-methylthiazol-5-yl)benzyl)pyrrolidine-2-carboxamide], the Dmax at 0.1 µM under setting [1] was found to be 32%. Besides, under setting [2], the Dmax at 1 µM was 35%. Besides, the Dmax at 10 µM under setting [3] stood at 40%.
